Measured values taken from patent US11883389B2, “Formulations of 2-(4-chlorophenyl)-N-((2-(2,6- dioxopiperidin-3-yl)-1-oxoisoindolin-5-yl)methyl)-2,2-difluoroacetamide” (Celgene Corporation, priority 2016, dated 2024).

What was measured:
[1] = hygroscopicity / dynamic vapor sorption analysis; type: physicochemical; settings: for water uptake (DVS): RH increased from about 0% to about 90% RH
Method: In certain embodiments, Form A is characterized by dynamic vapor sorption analysis. […] In certain embodiments, Form A comprises less than 0.1% water as determined in a coulometric Karl Fischer (KF) titrator equipped with an oven sample processor set at 225° C.
In certain embodiments, Form B is characterized by dynamic vapor sorption analysis. […] In certain embodiments, Form B comprises less than 0.1% water as determined in a coulometric Karl Fischer (KF) titrator equipped with an oven sample processor set at 225° C.
In certain embodiments, Form C is characterized by dynamic vapor sorption analysis. […] In certain embodiments, Form C comprises less than 0.1% water as determined in a coulometric Karl Fischer (KF) titrator equipped with an oven sample processor set at 225° C.

physchem [2] = type: physicochemical; settings: organic solvent or mixture
Description: Due to the poor water solubility of Compound 1, Form C, a cosolvent system was required to solubilize the drug compound in a solution prior to lyophilization. Several solubilizing agents and solvents that were considered in this example include hydroxypropyl-beta-cyclodextrin (HPβCD), Sulfobutylether-β-cyclodextrin sodium salt (SBEβCD; Captisol®), Tert-butyl alcohol (TBA), and dimethylacetamide (DMA).
When the SBEβCD concentration increased from 30% to 40%, the enhancement in drug solubility was very limited.

physchem [3] = settings: aqueous buffer
[4] = pH 5

SMILES	water uptake (DVS) [1]	solubility (physchem [2])	solubility (physchem [3])	Hygroscopicity [1]	Solution Stability [4]
O=C1CCC(N2Cc3cc(CNC(=O)C(F)(F)c4ccc(Cl)cc4)ccc3C2=O)C(=O)N1 (single isomer, unassigned) [Form C, 2-(4-Chlorophenyl)-N-((2-(2,6-dioxopiperidin-3-yl)-1-oxoisoindolin-5-yl)methyl)-2,2-difluoroacetamide]	about 0.6 % w/w	< 166 mg/mL			
O=C1CCC(N2Cc3cc(CNC(=O)C(F)(F)c4ccc(Cl)cc4)ccc3C2=O)C(=O)N1 (single isomer, unassigned) [Form A, 2-(4-Chlorophenyl)-N-((2-(2,6-dioxopiperidin-3-yl)-1-oxoisoindolin-5-yl)methyl)-2,2-difluoroacetamide]	about 1.2 % w/w				
O=C1CCC(N2Cc3cc(CNC(=O)C(F)(F)c4ccc(Cl)cc4)ccc3C2=O)C(=O)N1 (stereo not shown) [Form B, 2-(4-chlorophenyl)-N-((2-(2,6-dioxopiperidin-3-yl)-1-oxoisoindolin-5-yl)methyl)-2,2-difluoroacetamide]	about 1.4 % w/w				
O=C1CCC(N2Cc3cc(CNC(=O)C(F)(F)c4ccc(Cl)cc4)ccc3C2=O)C(=O)N1 (stereo not shown) [Compound 1, 2-(4-chlorophenyl)-N-((2-(2,6-dioxopiperidin-3-yl)-1-oxoisoindolin-5-yl)methyl)-2,2-difluoroacetamide]			≤ 0.001 mg/mL	Not hygroscopic	DS is not stable in solution at pH of 5.0 or above.
